Columns and labels:
Type in all cases: functional
Details in all cases: read-out: DIZ
Streptococcus pneumoniae = assay: Antibacterial activity against Streptococcus pneumoniae ATCC49619 at 5 ug/ml
Bacillus subtilis = assay: Antibacterial activity against Bacillis subtilis BS-GA28 at 5 ug/ml
Pseudomonas aeruginosa = assay: Antibacterial activity against Pseudomonas aeruginosa MTCC441 at 5 ug/ml
Escherichia coli = assay: Antibacterial activity against Escherichia coli MTCC442 at 5 ug/ml
Aspergillus fumigatus = assay: Antifungal activity against Aspergillus fumigatus HIC6094 at 5 ug/ml
[1] = test system: Syncephalastrum racemosum; assay: Antifungal activity against Syncephalastrum racemosum RCMB05922 at 5 ug/ml
Geotrichum candidum = assay: Antifungal activity against Geotrichum candidum RCMB05097 at 5 ug/ml
Candida albicans = assay: Antifungal activity against Candida albicans MTCC227 at 5 ug/ml

| Compound | zone of inhibition at 5 µg/mL (Streptococcus pneumoniae) [mm] | zone of inhibition at 5 µg/mL (Bacillus subtilis) [mm] | zone of inhibition at 5 µg/mL (Pseudomonas aeruginosa) [mm] | zone of inhibition at 5 µg/mL (Escherichia coli) [mm] | zone of inhibition at 5 µg/mL (Aspergillus fumigatus) [mm] | zone of inhibition at 5 µg/mL [1] [mm] | zone of inhibition at 5 µg/mL (Geotrichum candidum) [mm] | zone of inhibition at 5 µg/mL (Candida albicans) [mm] |
| --- | --- | --- | --- | --- | --- | --- | --- | --- |
| CCOC(=O)c1c(Nc2ccccc2)sc(-c2ccnc(S)n2)c1-c1ccccc1 | 12.3 | 12.7 | 9.8 | 11.3 | 15.7 | 16.6 | 12.6 | 12.7 |
| CCOC(=O)c1c(Nc2ccccc2)sc(-c2ccn(-c3ccc(Cl)cc3)n2)c1-c1ccccc1 | 18.2 | 18.9 | 10.8 | 11.1 | 26.3 | 20.9 | 12.6 | 11.2 |
| CCOC(=O)c1ccc(-c2sc(Nc3ccccc3)c(C(=O)OCC)c2-c2ccccc2)nc1C | 18.2 | 18.9 | 10.8 | 11.1 | 26.3 | 20.9 | 12.6 | 11.2 |
| CCOC(=O)c1c(Nc2ccccc2)sc(C(=O)/C=C/c2ccc([N+](=O)[O-])cc2[N+](=O)[O-])c1-c1ccccc1 | 16.5 | 18.9 | 11.3 | 9.9 | 18.9 | 19.6 | 14.8 | 13.4 |
| CCOC(=O)c1c(Nc2ccccc2)sc(C(=O)/C=C/c2ccc(O)cc2)c1-c1ccccc1 | 26.7 | 21.4 | 18.7 | 19.5 | 15.7 | 11.2 | 17.3 | 13.3 |
| CCOC(=O)c1c(Nc2ccccc2)sc(-c2ccn(-c3ccccc3)n2)c1-c1ccccc1 | 12.3 | 12.7 | 11.6 | 10.9 | 15.9 | 18.9 | 19.1 | 15.8 |
| CCOC(=O)c1c(Nc2ccccc2)sc(C(=O)/C=C/c2ccc(Cl)cc2)c1-c1ccccc1 | 19.5 | 29.8 | 12.3 | 17.6 | 22.3 | 16.5 | 25.8 | 12.3 |
| CCOC(=O)c1c(Nc2ccccc2)sc(C(=O)c2cn(-c3ccc(Cl)cc3)nc2C(C)=O)c1-c1ccccc1 | 14.6 | 14.3 | 10.2 | 8.8 | 16.3 | 14.8 | 15.3 | 14.3 |
| CCOC(=O)c1c(Nc2ccccc2)sc(C(=O)/C=C\Nc2ccc([N+](=O)[O-])cc2)c1-c1ccccc1 | 19.5 | 29.8 | 12.3 | 18.8 | 12.6 | 16.5 | 25.8 | 10.9 |
| CCOC(=O)c1c(Nc2ccccc2)sc(C(=O)/C=C/c2cccc(N(C)C)c2)c1-c1ccccc1 | 16.3 | 19.6 | 12.5 | 14.8 | 24.3 | 24.5 | 25.8 | 14.3 |
| CCOC(=O)c1c(Nc2ccccc2)sc(-c2ccnc(O)n2)c1-c1ccccc1 | 16.3 | 19.1 | 11.4 | 10.7 | 18.2 | 13.7 | 19.1 | 18.2 |
| CCOC(=O)c1c(Nc2ccccc2)sc(C(=O)/C=C/c2ccc(OC)cc2)c1-c1ccccc1 | 18.9 | 17.9 | 11.4 | 10.2 | 23.4 | 16.1 | 10.8 | 11.9 |
| CCOC(=O)c1c(Nc2ccccc2)sc(C(=O)c2cn(-c3ccc(C)cc3)nc2C(C)=O)c1-c1ccccc1 | 12.3 | 12.7 | 9.8 | 11.3 | 15.7 | 16.6 | 12.6 | 12.7 |
| CCOC(=O)c1c(Nc2ccccc2)sc(C(=O)/C=C/c2ccc(Cl)c(Cl)c2)c1-c1ccccc1 | 11.3 | 10.7 | 9.7 | 8.9 | 17.7 | 15.4 | 12.9 | 13.2 |
| CCOC(=O)c1c(Nc2ccccc2)sc(-c2ccnc(N)n2)c1-c1ccccc1 | 16.3 | 19.1 | 11.4 | 10.7 | 18.2 | 13.7 | 19.1 | 18.2 |
| C[C@@H]1[C@H](O)[C@@H](C)/C=C/C=C/C=C/C=C/C=C/C=C/C=C/[C@H](O[C@@H]2O[C@H](C)[C@@H](O)[C@H](N)[C@@H]2O)C[C@@H]2O[C@](O)(C[C@@H](O)C[C@@H](O)[C@H](O)CC[C@@H](O)C[C@@H](O)CC(=O)O[C@H]1C)C[C@H](O)[C@H]2C(=O)O [AMPHOTERICIN B] |  |  |  |  | 23.7 | 19.7 | 28.7 | 25.4 |
| CC1(C)S[C@@H]2[C@H](NC(=O)[C@H](N)c3ccccc3)C(=O)N2[C@H]1C(=O)O [AMPICILLIN] | 23.8 | 32.4 |  |  |  |  |  |  |

From ChEMBL document CHEMBL4834450, “Design, synthesis and antimicrobial activity of novel 2-aminothiophene containing cyclic and heterocyclic moieties” (2021)
